Measured values: patent US8653233B2, “Compositions and methods for preventing or treating cancer” (University of Nebraska Medical Center, priority 2003, dated 2014)
Where no end group is shown, it is not given here.

System: Panc02.MUC1 tumor cells
Experiment: MUC1 cytoplasmic tail peptide vaccination and Panc02.MUC1 tumor challenge

With “CQCRRKNYGQLDIFPARDTYHPMSEYPTYH (cysteine pairing not given here) [SEQ ID NO:47]” the survival (MUC1.Tg mice, three s.c. vaccinations at seven day intervals, Panc02.MUC1 challenge 10 days after final, vs control peptide or nonvaccinated, p<0.05) was “significant increase in survival” and the autoimmunity in organs (necropsy and histology, vaccinated MUC1.Tg mice challenged with Panc02.MUC1) was “no evidence of autoimmunity”.
